Consider 3 compounds from patent US11925653B2, “Combination therapy effective against microorganisms, including drug resistant microorganisms” (Fleurir ABX LLC, priority 2021, dated 2024).

One may read the Tmax as the time from dosing to the highest level.

Series [1] can be described thus: representative pharmacokinetic parameters. It counts as in vivo. To be noted: Dose: Fosfomycin 3000 mg, trimethoprim 720 mg. An excerpt:
The therapeutically effective amount may be modified by pharmacokinetic, and pharmacodynamic analysis as is understood in the field. In some embodiments, the novel composition may be provided prophylactically or preventatively or protectively, which may, in some instances, be at or below a therapeutically effective amount.

The test system of a further series is H. influenzae. To be noted: cited from earlier work.
Another series concerns E. faecalis. To be noted: cited from earlier work.
The subject of a further series is bacteria. The experiment in a line: spontaneous mutational frequency (SMF; resistance). The class given is cell-based. To be noted: resistant colonies observed divided by total inoculum; plates with 4-fold MIC of the combination or 2-fold MIC of each antibiotic alone. The protocol:
MIC was further evaluated to confirm resistance, and the spontaneous mutational frequency was calculated based on the following equation: […]
The spontaneous mutational frequency (SMF; resistance) was calculated as the number of resistant colonies observed divided by the total inoculum.

The compound `COc1cc(Cc2cnc(N)nc2N)cc(OC)c1OC` [trimethoprim, 2,4-diamino-5-(3,4,5-trimethoxybenzyl)pyrimidine] gave a kel (elimination rate constant) in series [1] of 0.08 h⁻¹. In addition, the Tmax in series [1] (sulfamethoxazole 3600 mg) was determined as 2 h. Besides, the results for the “MIC of co-trimoxazole, per component” value with H. influenzae and in the series with E. faecalis were 0.5 µg/mL and 2 µg/mL, respectively.

With `Cc1cc(NS(=O)(=O)c2ccc(N)cc2)no1` [sulfamethoxazole, N1-(5-methyl-3-isoxazolyl)sulfanilamide], the results for the “MIC of co-trimoxazole, per component” value with H. influenzae and in the series with E. faecalis were ≤ 9.5 µg/mL and 38 µg/mL, respectively.

Consider `O=C1CN(/N=C/c2ccc([N+](=O)[O-])o2)C(=O)N1` [nitrofurantoin], for which the “frequency of spontaneous mutants resistant (spontaneous mutational frequency, SMF)” value in the series with bacteria is 3.40×10^−8.
